Article PMC8625065 (Molecules, 2021)
Where a name gives a salt, the structure may show the parent alone. Marks after values point to notes of the source that are not given here.

Columns and labels:
[1] = system: A549 (lung adenocarcinoma); experiment: MTT proliferation assay, 72 h; type: cell-based; details: Homo sapiens, A549 cells
Procedure: (§1) The cell lines HeLa (cervical carcinoma), SW620 (colorectal adenocarcinoma, metastatic), A549 (lung adenocarcinoma), HepG2 (hepatocellular carcinoma) and HFF (human foreskin fibroblasts) were cultured as monolayers and maintained in Dulbecco’s modified Eagle medium (DMEM), supplemented with 10% fetal bovine serum (FBS), 2mM L-glutamine, 100 U/mL penicillin and 100 μg/mL streptomycin in a humidified atmosphere with 5% CO2 at 37 °C.
(§2) Cells were seeded onto 96-well microtiter plates at a seeding density of 3000 cells/well for carcinoma cell lines, and 5000 cells/well for normal human fibroblasts. The next day, cells were treated with test agents at five different concentrations (0.01–100 µM) and further incubated for 72 h. […] Following 72 h incubation, the MTT assay was performed and measured absorbances were transformed into percentage of cell growth as described previously. Results were obtained from three independent experiments.

[2] = molecular target: p(dAdT)2 (AT-DNA); experiment: Fluorimetric titration, Scatchard processing; type: binding; details: p(dAdT)2, pH 7.0, sodium cacodylate buffer, I = 0.05 mol dm^-3
Procedure: (§3) Compound solutions were used for measurements in aqueous buffer (pH = 7, sodium cacodylate buffer, I = 0.05 mol dm^−3). Polynucleotides were purchased as noted: poly A-poly U, poly (dAdT)2 and calf thymus (ct)DNA (Sigma-Aldrich). Polynucleotides were dissolved in Na-cacodylate buffer, I = 0.05 mol dm^−3, pH = 7. The calf thymus ctDNA was additionally sonicated and filtered through a […]. Polynucleotide concentration was determined spectroscopically as the concentration of phosphates.
(§4) Fluorescence spectra were recorded on a Varian Cary Eclipse spectrophotometer at 25 °C using appropriate 1cm path quartz cuvettes. Fluorometric experiments were performed at pH = 7 (I = 0.05 mol dm^−3, sodium cacodylate buffer) by adding portions of polynucleotide solution into the solution of the studied compound. In fluorometric experiments, an excitation wavelength of λexc ≥ 300 nm was used to avoid the inner filter effect caused due to increasing absorbance of the polynucleotide. Emissions were determined in the range λem = 300–600 nm. Values for Ks obtained by processing titration data using the Scatchard equation [40], in most titrations have satisfactory correlation coefficients (≥0.98).

[3] = system: ctDNA (calf thymus DNA); experiment: Fluorimetric titration, Scatchard processing; type: binding; details: pH 7.0, sodium cacodylate buffer, I = 0.05 mol dm^-3
Procedure: as §3, §4

[4] = molecular target: poly A-poly U (AU-RNA); experiment: Fluorimetric titration, Scatchard processing; type: binding; details: pH 7.0, sodium cacodylate buffer, I = 0.05 mol dm^-3
Procedure: as §3, §4

[5] = system: ctDNA; experiment: Thermal melting experiment; type: binding, calf; details: r = [compound]/[polynucleotide] = 0.3, pH 7.0, error ±0.5 °C
Procedure: (§5) Compound solutions were used for measurements in aqueous buffer (pH = 7, sodium cacodylate buffer, I = 0.05 mol dm^−3). Polynucleotides were purchased as noted: poly A-poly U, poly (dAdT)2 and calf thymus (ct)DNA (Sigma-Aldrich). Polynucleotides were dissolved in Na-cacodylate buffer, I = 0.05 mol dm^−3, pH = 7. The calf thymus ctDNA was additionally sonicated and filtered through a […]. Polynucleotide concentration was determined spectroscopically as the concentration of phosphates. UV–Vis spectra were recorded on a Varian Cary 100 Bio spectrophotometer using 1cm path quartz cuvettes. Calibration experiments were performed at 25 °C and pH = 7 (I = 0.05 mol dm^−3, sodium cacodylate buffer). Thermal melting curves for DNA and their complexes with studied compounds were determined as previously described by following the absorption change at 260 nm as a function of temperature. The absorbance of the ligands was subtracted from every curve and the absorbance scale was normalized. Tm values are the midpoints of the transition curves determined from the maximum of the first derivative and checked graphically by the tangent method. The ΔTm values were calculated by subtracting the Tm of the free nucleic acid from the Tm of the complex. Every ΔTm value reported here was the average of at least two measurements. The error in ΔTm is ±0.5 °C.

[6] = system: HFF (human foreskin fibroblasts); experiment: MTT proliferation assay, 72 h, non-tumor cells; type: cell-based; details: Homo sapiens, Fibroblast; non-tumor HFF fibroblasts, MTT, 72 h
Procedure: as §1, §2

[7] = system: poly(dAdT)2; experiment: Thermal melting experiment; type: binding; details: poly(dAdT)2, r = 0.3, pH 7.0; error ±0.5 °C
Procedure: as §5

[8] = system: poly A-poly U; experiment: Thermal melting experiment; type: binding; details: r = 0.3, pH 7.0, error ±0.5 °C
Procedure: as §5

[9] = system: HepG2 (hepatocellular carcinoma); experiment: MTT proliferation assay, 72 h; type: cell-based, human; details: for IC50: Homo sapiens, HepG2 cells, MTT, 72 h
Procedure: as §1, §2

[10] = system: SW620 (colorectal adenocarcinoma, metastatic); experiment: MTT proliferation assay, 72 h; type: cell-based, human; details: for IC50: Homo sapiens, SW-620, SW620 cells, MTT, 72 h
Procedure: as §1, §2

[11] = system: HeLa (cervical carcinoma); experiment: MTT proliferation assay, 72 h; type: cell-based, human; details: for IC50: Homo sapiens, HeLa cells, MTT, 72 h
Procedure: as §1, §2

[12] = system: poly (dAdT)2 (DNA, polymer) AT; experiment: UV thermal melting, 260 nm; details: Na+ (sodium cacodylate, I = 0.05 M); sodium cacodylate buffer pH 7
[13] = system: poly A-poly U (RNA, polymer) A/U; experiment: fluorescence titration, Scatchard; details: Na+ (sodium cacodylate, I = 0.05 M); sodium cacodylate buffer pH 7.0, 25 °C; polynucleotide concentration as phosphates; per base
[14] = system: poly A-poly U (RNA, polymer) A/U; experiment: UV thermal melting, 260 nm; details: Na+ (sodium cacodylate, I = 0.05 M); sodium cacodylate buffer pH 7
[15] = system: poly (dAdT)2 (DNA, polymer) AT; experiment: fluorescence titration, Scatchard; details: Na+ (sodium cacodylate, I = 0.05 M); sodium cacodylate buffer pH 7.0, 25 °C; polynucleotide concentration as phosphates; per base
[16] = Solubility of stock solution in water; type: physicochemical; details: c = 2 × 10^−3 mol dm^−3
Source text: Based upon the antiproliferative activity, several compounds from a series of novel amidine- and amidoxime-substituted heterocycles (5, 6, 8–11 and 20) were selected for the study with calf thymus DNA (ctDNA), alternating AT-DNA (poly (dAdT)2) and AU-RNA (poly A-poly U).

[17] = system: poly A-poly U (RNA, polymer) A/U; experiment: CD titration; details: Na+ (sodium cacodylate, I = 0.05 M); sodium cacodylate buffer pH 7, 25 °C; weak negative ICD near 300 nm, intercalation

SMILES	IC50 [1] [µM]	logKs [2]	logKs [3]	logKs [4]	ΔTm [5] [°C]	IC50 [6] [nM]	ΔTm [7] [°C]	ΔTm [8] [°C]	IC50 [9] [nM]	IC50 [10] [µM]	IC50 [11] [µM]	binding [12]	logKs [13]	logKs [15]	melting point [°C]	also measured
c1cc(C2=NCCN2)c2ccn(Cc3cn(-c4ccc(C5=NCCN5)cc4)nn3)c2c1 [Compound 6, 1-((1-(4-(Dihydro-1H-imidazol-2-yl)phenyl)-1H-1,2,3-triazol-4-yl)methyl)-4-(dihydro-1H-imidazol-2-yl)-1H-indole dihydrochloride]	49.9	6.6	5.0	4.2	2	< 10	6	0	2370	18	13.5					
Cl.Cl.c1cc(C2=NCCN2)ccc1OCc1cn(-c2ccc(C3=NCCN3)cc2)nn1 [Compound 5, 1-(4-(4,5-Dihydro-1H-imidazol-2-yl)-phenyl]-4-((4-(4,5-dihydro-1H-imidazol-2-yl)phenyloxy)methyl]-1H-1,2,3-triazole dihydrochloride]	15.7	6.5	5.7	7.0	5	< 10	14	2	640	0.22	0.8	yes	7.0	6.5	> 250	binding [14]: yes
Cl.c1cnc2c(OCc3cn(-c4ccc(C5=NCCN5)cc4)nn3)cccc2c1 [Compound 9, 8-((1-(4-(4,5-Dihydro-1H-imidazol-2-yl)phenyl)-1H-1,2,3-triazol-4-yl)methyloxy)-quinoline hydrochloride]	25.2	5.8	5.3	5.1	1	< 10	3	0	9070	2.69	10.3	yes	5.1	5.8	229 to 232	
N/C(=N\O)c1ccc(-n2cc(COc3cccc4ccc(/C(N)=N/O)nc34)nn2)cc1 [Compound 20, (Z)-N′-Hydroxy-8-((1-(4-((Z)-N′-hydroxycarbamimidoyl)phenyl)-1H-1,2,3-triazol-4-yl)methoxy)quinoline-2-carboximidamide]	31.4	4.7 ^d	4.3 ^d	4.6 ^d	0		0	0	51300	7.24	7.15				238 to 241	selectivity index (SI) on SW620 ([10]; HFF versus SW620 cells): > 14; selectivity index (SI) on HeLa ([11]; HFF versus HeLa cells): > 14; solubility in water [16]: small aggregation
Cl.O=c1cc(OCc2cn(-c3ccc(C4=NCCN4)cc3)nn2)c2ccccc2o1 [Compound 10, 4-((1-(4-(4,5-Dihydro-1H-imidazol-2-yl)phenyl)-1H-1,2,3-triazol-4-yl)methyloxy)-coumarin hydrochloride]	7.86	6.7			0	< 10	2	0	3550	1.75	1.9	yes		6.7		binding [17]: yes
Cl.O=c1ccc2ccc(OCc3cn(-c4ccc(C5=NCCN5)cc4)nn3)cc2o1 [Compound 11, 7-((1-(4-(4,5-Dihydro-1H-imidazol-2-yl)phenyl)-1H-1,2,3-triazol-4-yl)methyloxy)-coumarin hydrochloride]	4.49	4.9		4.9	0	3140	2	0	280	4.77	2.13	yes	4.9	4.9	> 250	selectivity index (SI) on HepG2 ([9]; HFF versus HepG2 cells): 11
